Columns and labels:
[1] = biological target: Cyclin-dependent kinase 2 (Homo sapiens) (UniProt P24941); test: Percentage inhibition against cyclin dependent kinase 2 (CDK 2) at a concentration of 50 uM
[2] = biological target: Tyrosine-protein kinase Fyn (Homo sapiens, UniProt P06241); test: Inhibition of Fyn kinase
[3] = biological target: Tyrosine-protein kinase Lyn (Homo sapiens, UniProt P07948); test: Inhibition of Lyn tyrosine kinase
[4] = biological target: Protein kinase C (PKC); test: Inhibition of protein kinase C; type: protein assay
[5] = Inhibition of Mitogen-activated protein kinase
[6] = biological target: Cyclin-dependent kinase 1/cyclin B (Homo sapiens, UniProt P06493); test: Inhibition of Cell division cycle 2 (CDK1)-cyclin B; type: protein-complex assay
[7] = biological target: Cyclin-dependent kinase 2/cyclin A (Homo sapiens, UniProt P24941); test: Inhibition of Cyclin-dependent kinase 2-cyclin A; type: protein-complex assay
[8] = biological target: Tyrosine-protein kinase Lck (Homo sapiens, UniProt P06239); test: Inhibition of p56 Lck tyrosine kinase
[9] = biological target: Cyclin-dependent kinase 5/CDK5 activator 1 (Homo sapiens, UniProt Q00535); test: Inhibition of Cyclin-dependent kinase 5-p35nck5a; type: protein-complex assay
Sequence of Cyclin-dependent kinase 5/CDK5 activator 1 (Q00535 whole entry): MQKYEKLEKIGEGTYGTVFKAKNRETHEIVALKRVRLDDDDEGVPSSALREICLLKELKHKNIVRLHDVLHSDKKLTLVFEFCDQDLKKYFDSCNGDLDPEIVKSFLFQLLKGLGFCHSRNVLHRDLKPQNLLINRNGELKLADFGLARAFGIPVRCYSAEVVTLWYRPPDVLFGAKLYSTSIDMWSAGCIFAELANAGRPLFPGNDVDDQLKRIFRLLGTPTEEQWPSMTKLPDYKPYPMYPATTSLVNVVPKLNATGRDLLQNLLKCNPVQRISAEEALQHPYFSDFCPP
Sequence of Cyclin-dependent kinase 5/CDK5 activator 1 (Q15078 whole entry, further chain): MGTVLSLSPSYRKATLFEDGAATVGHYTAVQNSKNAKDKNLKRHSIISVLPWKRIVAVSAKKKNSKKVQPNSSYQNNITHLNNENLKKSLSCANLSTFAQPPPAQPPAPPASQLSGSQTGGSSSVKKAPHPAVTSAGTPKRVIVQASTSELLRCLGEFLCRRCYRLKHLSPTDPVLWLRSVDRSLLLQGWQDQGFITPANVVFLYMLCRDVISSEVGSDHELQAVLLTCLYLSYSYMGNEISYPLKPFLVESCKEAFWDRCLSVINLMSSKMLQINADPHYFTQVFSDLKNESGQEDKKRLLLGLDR

Sequence of Tyrosine-protein kinase Fyn (P06241 whole entry): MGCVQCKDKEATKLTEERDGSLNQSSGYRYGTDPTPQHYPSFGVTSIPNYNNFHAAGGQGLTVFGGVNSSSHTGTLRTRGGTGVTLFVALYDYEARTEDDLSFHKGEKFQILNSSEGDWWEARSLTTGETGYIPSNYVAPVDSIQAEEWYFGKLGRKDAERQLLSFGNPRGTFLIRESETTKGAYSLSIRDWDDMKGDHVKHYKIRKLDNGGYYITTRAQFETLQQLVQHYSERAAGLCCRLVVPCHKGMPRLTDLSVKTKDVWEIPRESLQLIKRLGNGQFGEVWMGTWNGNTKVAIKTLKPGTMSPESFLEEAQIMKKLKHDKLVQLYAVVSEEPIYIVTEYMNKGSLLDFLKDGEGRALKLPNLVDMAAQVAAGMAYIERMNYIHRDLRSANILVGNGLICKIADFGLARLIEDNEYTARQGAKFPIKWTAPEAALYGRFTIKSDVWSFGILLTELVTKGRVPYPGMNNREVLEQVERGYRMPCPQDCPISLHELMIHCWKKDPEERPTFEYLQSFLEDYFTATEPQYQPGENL
Sequence of Tyrosine-protein kinase Lyn (P07948 whole entry): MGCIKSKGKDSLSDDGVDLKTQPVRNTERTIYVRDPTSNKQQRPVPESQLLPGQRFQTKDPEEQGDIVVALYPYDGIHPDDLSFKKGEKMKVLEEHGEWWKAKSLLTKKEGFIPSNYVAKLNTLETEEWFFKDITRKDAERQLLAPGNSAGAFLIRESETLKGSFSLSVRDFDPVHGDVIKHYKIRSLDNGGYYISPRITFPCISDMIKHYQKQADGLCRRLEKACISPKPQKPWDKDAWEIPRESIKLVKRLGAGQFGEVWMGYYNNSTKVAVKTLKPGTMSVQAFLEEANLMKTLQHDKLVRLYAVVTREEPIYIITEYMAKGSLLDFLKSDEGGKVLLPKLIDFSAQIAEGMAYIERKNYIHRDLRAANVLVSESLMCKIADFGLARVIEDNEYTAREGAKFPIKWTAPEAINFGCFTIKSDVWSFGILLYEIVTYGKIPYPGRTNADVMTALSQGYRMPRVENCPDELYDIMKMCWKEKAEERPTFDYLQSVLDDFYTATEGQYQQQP
Sequence of Tyrosine-protein kinase Lck (P06239 whole entry): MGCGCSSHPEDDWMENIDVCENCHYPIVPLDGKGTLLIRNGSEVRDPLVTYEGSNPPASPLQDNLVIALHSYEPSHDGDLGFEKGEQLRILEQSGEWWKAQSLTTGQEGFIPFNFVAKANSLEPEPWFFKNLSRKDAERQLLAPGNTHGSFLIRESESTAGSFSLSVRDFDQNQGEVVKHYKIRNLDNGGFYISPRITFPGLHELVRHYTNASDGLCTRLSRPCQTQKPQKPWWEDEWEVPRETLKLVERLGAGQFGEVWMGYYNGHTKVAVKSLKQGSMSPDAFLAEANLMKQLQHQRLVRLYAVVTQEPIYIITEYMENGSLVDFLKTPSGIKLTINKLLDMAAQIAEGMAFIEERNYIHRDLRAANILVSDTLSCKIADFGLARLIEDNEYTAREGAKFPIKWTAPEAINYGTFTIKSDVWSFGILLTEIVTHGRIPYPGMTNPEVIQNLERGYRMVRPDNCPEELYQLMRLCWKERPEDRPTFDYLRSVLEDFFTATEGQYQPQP

| SMILES | inhibition [1] | other results |
| --- | --- | --- |
| Cc1nccc2c1[nH]c1cc(OCCC3(C)OCC(C)(C)CO3)ccc12 | 27% |  |
| Fc1ccc2c(c1)[nH]c1c(-c3ccccc3F)nccc12 | 55% |  |
| Fc1ccc2c(c1)[nH]c1c(-c3ccccc3)nccc12 | 57% |  |
| O=[N+]([O-])c1ccccc1-c1[nH]ccc2c3ccccc3nc1-2 | 43% |  |
| Cc1[nH]cnc1-c1nccc2c1[nH]c1ccccc12 | 89% | IC50 [2]: > 250 µM; IC50 [3]: > 250 µM; IC50 [4]: > 250 µM; IC50 [5]: > 250 µM; IC50 [6]: 25 µM; IC50 [7]: 6 µM |
| CC(C)(C)c1[nH]ccc2c3ccccc3nc1-2 | 50% |  |
| COc1ccc2[nH]c3c(C)nccc3c2c1 | 2% |  |
| Fc1cccc(-c2nccc3c2[nH]c2ccccc23)c1 | 6% |  |
| Cc1nccc2c1[nH]c1cc(F)ccc12 | 65% | IC50 [2]: > 250 µM; IC50 [8]: > 250 µM; IC50 [3]: > 250 µM; IC50 [4]: > 250 µM; IC50 [5]: > 250 µM; IC50 [6]: 42 µM; IC50 [7]: 30 µM |
| N#Cc1cccc(-c2nccc3c2[nH]c2ccccc23)c1 | 31% |  |
| COc1ccc2c3c([nH]c2c1)C(C)=NCC3 | 10% |  |
| CC(=O)OCCOc1ccc2c(c1)[nH]c1c(C)nccc12 | 23% |  |
| Cc1nccc2c1[nH]c1cc(OC(=O)NC3CCCCC3)ccc12 | 53% |  |
| Cc1nccc2c1[nH]c1cc(OCCOC(=O)c3ccccc3)ccc12 | 13% |  |
| CCc1nccc2c1[nH]c1cc(F)ccc12 | 54% |  |
| Cc1ccc2c(c1)[nH]c1c(-c3ccccc3F)nccc12 | 36% |  |
| Fc1ccc(-c2[nH]ccc3c4ccccc4nc2-3)c(F)c1 | 56% |  |
| CCCc1nccc2c1[nH]c1cc(F)ccc12 | 60% |  |
| Cc1ccc2[nH]c3c(C)nccc3c2c1 | 15% |  |
| Cc1nccc2c1[nH]c1cc(Oc3ncc(C(F)(F)F)cc3Cl)ccc12 | 10% |  |
| Cc1nccc2c1[nH]c1cc(OCCN3C(=O)c4ccccc4C3=O)ccc12 | 8% |  |

| SMILES | inhibition [1] | other results |
| --- | --- | --- |
| Fc1ccc(-c2nccc3c2[nH]c2ccccc23)cc1 | 20% |  |
| Clc1ccc(-c2nccc3c2[nH]c2ccccc23)cc1 | 48% |  |
| c1ccc(-c2nccc3c2[nH]c2ccccc23)cc1 | 13% |  |
| CC1=NCCc2c1[nH]c1cc(O)ccc21 | 13% |  |
| O=[N+]([O-])c1cccc(-c2[nH]ccc3c4ccccc4nc2-3)c1 | 19% |  |
| Cc1nccc2c1[nH]c1ccc(F)cc12 | 46% |  |
| Cc1ccc2c(c1)[nH]c1c(C)nccc12 | 23% |  |
| CCCCOc1ccc2c(c1)[nH]c1c(C)nccc12 | 50% |  |
| Cc1[nH]ccc2c1[nH]c1cc(=O)ccc12 | 69% |  |
| Clc1cccc(-c2nccc3c2[nH]c2ccccc23)c1 | 32% |  |
| Cc1nccc2c1[nH]c1cccc(C)c12 | 30% |  |
| N#Cc1ccccc1-c1[nH]ccc2c3ccccc3nc1-2 | 8% |  |
| Cc1nccc2c1[nH]c1ccccc12 | 47% |  |
| Cc1nccc2c1[nH]c1cc(OCC(N)=O)ccc12 | 15% |  |
| Cc1nccc2c1[nH]c1ccc(OC(=O)c3ccccc3)cc12 | 2% |  |
| O=[N+]([O-])c1ccc(-c2[nH]ccc3c4ccccc4nc2-3)cc1Cl | 4% |  |
| c1ccc2c(c1)[nH]c1cnccc12 | 37% |  |
| Brc1ccccc1-c1[nH]ccc2c3ccccc3nc1-2 | 10% |  |
| O=[N+]([O-])c1ccc(Cl)c(-c2[nH]ccc3c4ccccc4nc2-3)c1 | 70% | IC50 [2]: > 250 µM; IC50 [3]: > 250 µM; IC50 [4]: > 250 µM; IC50 [9]: > 1200 µM; IC50 [6]: 45 µM; IC50 [7]: 22 µM |
| COc1ccc(-c2nccc3c2[nH]c2ccccc23)cc1 | 6% |  |
| COC(=O)Cc1nccc2c1[nH]c1ccccc12 | 11% |  |

| SMILES | inhibition [1] | other results |
| --- | --- | --- |
| CCOC(COc1ccc2c(c1)[nH]c1c(C)nccc12)OCC | 1% |  |
| COc1ccc2c(c1)[nH]c1c(C)nccc12 [HARMINE] | 62% | IC50 [2]: > 250 µM; IC50 [8]: > 250 µM; IC50 [3]: > 250 µM; IC50 [4]: > 250 µM; IC50 [5]: > 250 µM; IC50 [7]: 35 µM |
| CCCc1nccc2c1[nH]c1ccccc12 | 43% |  |
| Cc1nccc2c1[nH]c1cccc(F)c12 | 55% |  |
| Cc1ccc(-c2[nH]ccc3c4ccccc4nc2-3)c(C)c1 | 5% |  |
| c1ccc2c(c1)[nH]c1c(-c3c[nH]cn3)nccc12 | 30% |  |
| COc1ccc2[nH]c3c(C(=O)O)nccc3c2c1 | 12% |  |
| O=[N+]([O-])c1ccc(-c2[nH]ccc3c4ccccc4nc2-3)cc1 | 31% |  |
| COc1cccc(-c2[nH]ccc3c4ccccc4nc2-3)c1 | 5% |  |
| FC(F)(F)c1[nH]ccc2c3ccccc3nc1-2 | 39% |  |
| N#Cc1ccc(-c2nccc3c2[nH]c2ccccc23)cc1 | 29% |  |
| Cc1[nH]cnc1-c1[nH]ccc2c3ccc(F)cc3nc1-2 | 51% |  |
| Clc1ccccc1-c1[nH]ccc2c3ccccc3nc1-2 | 69% |  |
| CC(C)c1nccc2c1[nH]c1ccccc12 | 44% |  |
| Cc1nccc2c1[nH]c1cc(OCC(=O)OCc3ccccc3)ccc12 | 57% |  |
| Fc1ccccc1-c1[nH]ccc2c3ccccc3nc1-2 | 64% |  |
| CCCc1ncc(N)c2c1[nH]c1ccccc12 | 22% |  |
| Cc1nccc2c1[nH]c1cc(OCCO)ccc12 | 4% |  |
| CCCNC(=O)Oc1ccc2c(c1)[nH]c1c(C)nccc12 | 61% |  |
| CCOc1ccc2c(c1)[nH]c1c(C)nccc12 | 43% |  |
